The text below walks through data of PubChem BioAssay (NCI).

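In this assay, cells in 96-well plates receive the compound at five concentrations for 48 hours. Endpoints are linearly interpolated between the surrounding concentrations. GI50 = concentration required for 50% inhibition of growth. TGI: total growth inhibition.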

Holding throughout (experiment): growth of human tumour cells (NCI), 48 h
Assay [1] has as its system SF-268 CNS.
For assay [2], the system named is SN12C renal.
The test system of assay [3] is A549 NSCLC.
Assay [4] deals with SR leukemia.
For assay [5], the system named is CAKI-1 renal.
The test system of assay [6] is HOP-92 NSCLC.
Assay [7] deals with 786-0 renal.
Assay [8] concerns MDA-MB-435.
Assay [9] relates to OVCAR-3 ovarian.
For assay [10], the system named is PC-3 prostate.

Take `COc1ccc(C(=O)O)c2c(=O)c3ccccc3[nH]c12`: the TGI in assay [1], in assay [2], in [3], in assay [4], in assay [5] and in assay [6] was more than 100 µM throughout. Also, the TGI in assay [7] is more than 100 µM.

As to `N#Cc1c(N)nc(N2CCOCC2)c(C#N)c1-c1cccc(O)c1`, the GI50 in assay [8] was more than 100 µM; in [1] it was more than 100 µM; in [2], 69 µM; in assay [3] it was more than 100 µM; in assay [9], 61.9 µM; in assay [10], 46.9 µM. The GI50 in assay [5] is more than 100 µM; in assay [6], 37.6 µM; in assay [7] it was more than 100 µM. The TGI in [8], in assay [1], in [2], in assay [3], in assay [9] and in [10] was more than 100 µM each time. The TGI in assay [5], in [6] and in [7] was more than 100 µM in each case.

On to `Cc1ccc(NC(=O)/C(=N/NC(=O)CC#N)C2C(=O)N(c3ccccc3)N=C2N)cc1C` (centres undefined), for which the TGI in assay [1], in assay [2], in [3], in assay [9], in assay [4] and in assay [5] was more than 100 µM throughout. Also, the TGI in assay [6] and in assay [7] was more than 100 µM throughout.

Take `COc1ccc(C2c3cc4c(cc3OC(O)(CO)C2C(=O)O)OCO4)c(OC)c1OC` (centres undefined) (tested in a mixture with another compound): the TGI in assay [2], in assay [3], in assay [9], in assay [5], in assay [6] and in assay [7] was more than 100 µM in each case.

Regarding `C/C(=C\c1ccn(-c2ccc(N)cc2C(F)(F)F)n1)[C@@H]1C[C@@H]2O[C@]2(C)CCC[C@H](C)[C@H](O)[C@@H](C)C(=O)C(C)(C)[C@@H](O)CC(=O)O1`, the GI50 is 0.0599 µM in [8]; 0.481 µM in [1]; 1.57 µM in [2]; 0.508 µM in assay [3]; 0.344 µM in assay [9]; 0.406 µM in assay [10]. The GI50 in [5] was 7.81 µM; in [6], 1.27 µM; in assay [7], 0.569 µM. In addition, the TGI in assay [8] was 0.286 µM; in [1] it was more than 11.1 µM; in assay [2], more than 11.1 µM; in assay [3] it was more than 11.1 µM; in [9], 2.66 µM; in assay [10], more than 11.1 µM. The TGI in assay [5], in [6] and in [7] was more than 11.1 µM throughout.

Turning to `CC1(C)OC(=O)C=C(O)O1.CC1(C)OC(=O)C=C(O)O1.CCO.Oc1ccc2c(c1)CCC2.[Ti]`, the GI50 in assay [1], in [2], in assay [3], in [9], in assay [5] and in assay [7] was more than 100 µM throughout. For the same molecule, the TGI in assay [1], in [2], in [3], in assay [9], in assay [5] and in assay [7] was more than 100 µM in each case.

As to `NC(=S)N/N=C1\C(=O)N(c2cccc([N+](=O)[O-])c2)C(=O)C1C(=O)Nc1cccc([N+](=O)[O-])c1` (centres undefined), the TGI in assay [1], in [2], in [3], in assay [9], in [5] and in assay [6] was more than 100 µM throughout. Moreover, the TGI in assay [7] is more than 100 µM.

Take `CCSc1nc(=S)[nH]c2[nH]ncc12`: the GI50 in assay [8] was 63.1 µM; in assay [1], 51.9 µM; in assay [2] it was more than 100 µM; in assay [3], more than 100 µM; in assay [9], 64.6 µM; in assay [10], more than 100 µM. Moreover, the GI50 in assay [5] was 50.8 µM; in assay [6] it was 91.6 µM; in assay [7], more than 100 µM. Besides, the TGI in [8], in assay [1], in assay [2], in [3], in [9] and in assay [10] was more than 100 µM throughout. Further, the TGI in [5], in [6] and in [7] was more than 100 µM each time.

As to `N#C/C(=C\c1ccc(Br)cc1)n1nnc2cc(F)c(F)cc21`, the GI50 is 1.38 µM in assay [8]; 2.14 µM in [3]; 1.89 µM in assay [9]; 1.8 µM in [10]; 1.37 µM in [5]; 1.57 µM in [6]. For the same molecule, the GI50 in assay [7] is 1.67 µM. The TGI in assay [8] turned out to be 3.23 µM; in assay [3], 5.62 µM; in assay [9], 3.76 µM; in assay [10], 3.81 µM; in [5], 2.79 µM; in [6], 4.15 µM. The same molecule returned a TGI in [7] of 3.18 µM.

As for `CC1CC(C)C(=O)C(C(=O)CC2CC(=O)NC2=O)C1` (centres undefined), the TGI in assay [1], in [2], in assay [3], in assay [9], in assay [4] and in assay [5] was more than 100 µM in each case. In addition, the TGI in assay [6] and in assay [7] was more than 100 µM throughout.

Regarding `CC(=O)Oc1cc2c(=O)oc3c(OC(C)=O)c(OC(C)=O)c(OC(C)=O)c4c(=O)oc(c1OC(C)=O)c2c34`, the TGI in [1] is more than 100 µM; in assay [2], 61.1 µM; in [3], more than 100 µM; in assay [9] it was more than 100 µM; in assay [4] it was more than 100 µM; in assay [5], more than 100 µM. Also, the figures for the TGI in [6] and in assay [7] were 96.9 µM and more than 100 µM, respectively.
